Results from article PMC5986712, “Aminobenzothiazole derivatives stabilize the thermolabile p53 cancer mutant Y220C and show anticancer activity in p53-Y220C cell lines” (European Journal of Medicinal Chemistry, 2018).

Experiments:
[1] = test system: WI38 cells (non-cancerous fibroblast, p53 WT); assay: Cell viability assay, WI38; details: Homo sapiens, WI-38, 72 h, read-out: IC50 WI38
Protocol: (§6) All cell lines were cultured as previously described [9]. Cell viability was measured in quadruplicate (technical replicates) using the CellTiter-Fluor or CellTiter-Glo 2.0 cell viability assay kits (Promega, USA) as previously described [9].

HUH-7 cells (p53-Y220C) = assay: Cell viability assay, HUH7; assay type: cell-based, human
Protocol: (§1) We also envisaged that masking the carboxylate of MB710 as a simple ethylamide MB725 might influence cell permeability and uptake of the scaffold.
(§2) All cell lines were cultured as previously described. Cell viability was measured in quadruplicate (technical replicates) using the CellTiter-Fluor or CellTiter-Glo 2.0 cell viability assay kits (Promega, USA) as previously described.

BXPC-3 cells (p53-Y220C) = assay: Cell viability assay, BXPC3; details: BXPC-3, 72 h; for IC50: Homo sapiens, read-out: IC50 BXPC3
Protocol: as §6

NUGC3 cells (p53-Y220C) = assay: Cell viability assay (CellTiter-Fluor / CellTiter-Glo 2.0), NUGC3; assay type: cell-based, human; details: for IC50: Homo sapiens, NUGC-3, 72 h, Y220C cell line
Protocol: as §1, §2

SW1088 cells (p53-R273C) = assay: Cell viability assay, SW1088; details: Homo sapiens, SW1088, 72 h, read-out: IC50 SW1088
Protocol: as §6

[2] = Solubility (qualitative observation); assay type: physicochemical
[3] = test system: NUGC4 cells (wild-type p53); assay: Cell viability assay, NUGC4; assay type: cell-based; details: Homo sapiens, NUGC-4; 72 h, p53 WT
Protocol: as §1, §2

[4] = Cell viability in other cell lines (lacking Y220C); assay type: cell-based; details: human, at concentrations below 40 μM
Description: We expected our compounds to show a strong cell viability reduction in cancer cell lines containing the Y220C mutation (NUGC3, HUH-7, BXPC-3), while showing relatively low or no effect on cell lines lacking this mutation (all others). We also envisaged that masking the carboxylate of MB710 as a simple ethylamide MB725 might influence cell permeability and uptake of the scaffold. […] In particular, NUGC3 was the most sensitive cell line.
Fig. 6 Effects of Y220C binders on cancer cell viability. Relative cell viability (Y-axis) of representative cell lines after 72 h treatment with increasing concentrations (X-axis, μM) of 60 (A), MB710 (B), MB725 (C), and previously reported lead compounds PK083 (D), PK7088 (E) and PK5196 (F). The cell line employed in each experiment and their respective p53 status are shown. […] Cell viability was measured in quadruplicate and normalized against the values of blank (viability = 1) and no cell (viability = 0) controls. Data are shown as mean ± SEM.
(§3) WI-38 and BXPC-3 (p53-Y220C) cell lines were purchased from ATCC and HUH-7 (p53-Y220C+/+), HUH-6 (wild-type p53+/+). […] Cell viability was measured in quadruplicate (technical replicates) using the CellTiter-Fluor or CellTiter-Glo 2.0 cell viability assay kits (Promega, USA) as previously described. […]

[5] = test system: p53 target genes in HUH-7 and HUH-7 p53-Y220C KO cells; assay: Real-time PCR of p53 target genes, HUH-7 versus HUH-7 p53-Y220C KO; assay type: cell-based, human; details: 18 h
Description: (§4) To confirm that MB725 mediated anticancer effects are dependent on p53-Y220C, we additionally tested the compound in HUH-7 and an in-house CRISPR generated isogenic p53-Y220C knock-out (KO) HUH-7 cell line (Fig. 8). This new cell line contains a frameshift mutation at codon 124 on one allele and deletion of amino acids 125–223 on the other allele, leading to functional inactivation of the p53 DNA-binding domain (aa 92–292). MB725 decreased cell viability by ca. 30–40% more potently in HUH-7 than in the isogenic HUH-7 p53-Y220C KO (Fig. 8, upper panel).
(§5) Fig. 8 Assessment of p53-Y220C dependent effect of MB725. Treatment of HUH-7 (p53-Y220C) and HUH-7 p53-Y220C KO cell lines with MB725 for 72 h underscores the enhanced cytotoxicity of MB725 in the presence of p53-Y220C (left panel). […] Cell viability was measured in quadruplicate and normalized against the values of blank (viability = 1) and no cell (viability = 0) controls (left panel). Data are shown as mean ± SEM (Unpaired t-test to test for significance in HUH7 and HUH7 p53 KO viability reduction; *p < 0.05; **p < 0.01; ***p < 0.001). Relative mRNA fold-change was measured in triplicate and normalized against untreated sample according to the ΔΔCt method. […]
Real-time PCR experiments were performed as described. […] The ΔΔCt method was used to quantify relative mRNA levels. Each sample was measured in triplicate.

[6] = test system: HUH-7 and HUH-7 p53-Y220C KO cells; assay: Cell viability, HUH-7 versus isogenic HUH-7 p53-Y220C KO; assay type: cell-based, human; details: 72 h
Description: as §4
as §5, with “Data are shown as mean ± SEM (Unpaired t-test to test for significance in HUH7 and HUH7 p53 KO viability reduction; *p < 0.05; **p < 0.01; ***p < 0.001).” left out
as §3

[7] = target: T1, stabilized p53-Y220C DBD (residues 94–312) (Homo sapiens, UniProt P04637, M133L/N239Y/N268D/V203A/Y220C); assay: Differential scanning fluorimetry (DSF), thermal stabilization of Y220C; assay type: binding; details: 8 μM protein, 10 × SYPRO Orange, 250 μM ligand
T1 construct: Stabilized p53-Y220C DBD (residues 94–312) was expressed and purified; 6xHis / lipoyl domain / TEV protease cleavage site (N, cleaved yes); made in house; host or cells: E. coli C41
Protocol: DSF was performed as described. […] All samples were measured in triplicate.

15N-labeled T-p53C-Y220C = target: T2, 15N-labeled T-p53C-Y220C (Homo sapiens, UniProt P04637, M133L/N239Y/N268D/V203A/Y220C); assay: 1H/15N-HSQC NMR titration; assay type: binding; details: average of at least three fits of shifted peaks
T2 construct: Stabilized p53-Y220C DBD (residues 94–312) was expressed and purified; 6xHis / lipoyl domain / TEV protease cleavage site (N, cleaved yes); made in house; host or cells: E. coli C41
Description: Compound stock solutions were mixed with protein immediately before the NMR measurement.

[8] = target: T1, stabilized p53-Y220C DBD (residues 94–312); assay: Isothermal titration calorimetry (ITC); assay type: binding
Protocol: Isothermal Titration Calorimetry (ITC). ITC experiments were conducted as described. The cell unit contained 50 μM protein in a 25 mM KPi (pH 7.2), 150 mM NaCl, 1 mM TCEP, and 5% (v/v) DMSO assay buffer. The syringe contained 2–5 mM compound in the same buffer.

[9] = test system: NUGC4, HUH-6, NUGC3, HUH-7, SW1088, BXPC-3, WI38 cells; assay: Cell viability across all cell lines tested; assay type: cell-based, human; details: 72 h treatment; 60 and MB710: at concentrations up to 60 μM
Protocol: as §1, §2

p53 cancer mutant Y220C = details: cited from earlier work

SMILES | IC50 [1] [µM] | IC50 (BXPC-3 cells (p53-Y220C)) [µM] | IC50 (NUGC3 cells (p53-Y220C)) [µM] | IC50 (SW1088 cells (p53-R273C)) [µM] | IC50 [3] [µM] | ΔTm at 250 µM [7] [°C] | also measured
CCNC(=O)c1c(O)c(I)c(-n2cccc2)c2sc(N(CC)CC)nc12 [Compound 72, 2-(diethylamino)-N-ethyl-5-hydroxy-6-iodo-7-(1H-pyrrol-1-yl)benzo[d]thiazole-4-carboxamide] | > 120 | 18 | 10 | > 120 | > 120 |  | cell viability (HUH-7 cells (p53-Y220C); HUH-7, 72 h, at concentrations below 40 μM): 30%; IC50 (HUH-7 cells (p53-Y220C); Homo sapiens, Huh-7, 72 h, Y220C cell line): 10 µM; cell viability (BXPC-3 cells (p53-Y220C); at concentrations below 40 μM): 30%; concentration at which an almost maximum effect was achieved (NUGC3 cells (p53-Y220C); NUGC3, 72 h): below 10 μM; cell viability (NUGC3 cells (p53-Y220C); NUGC3, 72 h, at concentrations below 40 μM): 10%; solubility (in words) [2]: reduced solubility; viability at 72 h [4]: > 80%; increase of mRNA levels of p53 target genes (PUMA (BBC3), p21, MDM2, NOXA, BAX) [5]: more efficiently in HUH-7 than in HUH-7 p53-Y220C KO; cell viability decreased more potently in HUH-7 than in isogenic HUH-7 p53-Y220C KO [6]: 30–40%
CCCCOc1cc(C(=O)O)c(O)c(I)c1-n1cccc1 [Compound 52, 5-butoxy-2-hydroxy-3-iodo-4-(1H-pyrrol-1-yl)benzoic acid] |  |  |  |  |  | 1.4 | Kd (15N-labeled T-p53C-Y220C): 30 µM
CCN(CC)c1nc2c(C(=O)O)c(O)c(I)c(-n3cccc3)c2s1 [Compound 70, 2-(diethylamino)-5-hydroxy-6-iodo-7-(1H-pyrrol-1-yl)benzo[d]thiazole-4-carboxylic acid] | > 120 |  | 90 | > 120 | ~120 | 2 | Kd ([8]; ITC): 4 µM; fold increase in affinity compared to starting fragment 4 ([8]; Kd ratio): 200 fold; toxicity and selectivity across cell lines (in words) [9]: relatively low toxicity against all cell lines tested; viability reduction HUH-7 versus HUH-7 p53-Y220C KO (in words) ([6]; at higher compound concentration than MB725): stronger viability reduction in HUH-7 cells than in HUH-7 p53-Y220C KO cells
CCn1c2ccccc2c2cc(CNC)ccc21 [Compound 1] | 22 | 43 | 14 |  | 9 |  | Kd (p53 cancer mutant Y220C): 140 µM
